Key:
SET2 cells = experiment: SET2 viability with prodrug plus recombinant enzyme or enzyme-containing supernatant; format: cell-based; conditions: SET2, with Beta-lactamase supernatant
Procedure: Recombinant CPG2 protein was initially synthesized, purified (FIGS. 15A and 15B), and incubated with increasing concentrations of prodrug in a glutamate release assay (FIG. 14C). Mass spectrometry was used to determine that the glutamate moiety was released from all of the glutamate prodrugs.
Cell viability was measured by CellTitre-Glo® luminescence assay.
To determine to respective enzyme output of the Beta-lactamase constructs relative to the previous CPG2 constructs, a quantitative sandwich ELISA was used to determine the concentration (ng/mL) of purified recombinant CPG2, and a quantitative nitrocefin assay was used to determine the concentration (ng/mL) of purified recombinant Beta-lactamase (FIG. 22A). Cell viability was measured by CellTitre-Glo® luminescence in the presence of prodrug (glut-AMS or ceph-AMS) and varying concentrations of purified recombinant CPG2 or Beta-lactamase (FIG. 22B).

Jurkat T cells = conditions: increasing prodrug with CPG2 supernatant, 48 hours
[1] = test system: HEK293T cells expressing CPG2; experiment: Prodrug treatment of HEK293T cells expressing CPG2 variants; format: cell-based, human
Procedure: Expression of CPG2 without a signal peptide (CPG2nosigp) was employed as a control. HEK293t cells stably transfected with CPG2 variants were exposed to P-AMS (1 μM) for 48 hours and analyzed by bright field microscopy (FIG. 9A). Cells were exposed to varying concentrations of P-AMS and cell viability was analyzed at 48 hr post treatment (FIG. 9B).

Human Jurkat T cells = experiment: Prodrug activation by purified recombinant CPG2, Jurkat viability; format: cell-based; conditions: Jurkat viability at 48 hours
Procedure: FIG. 4 provides exemplary data showing activation of P-AMS (see FIG. 2) by recombinant CPG2 expressed and purified from E. coli. (A) Human Jurkat T cells were incubated with or without P-AMS in the presence of increasing concentration of purified CPG2. […] (B) Recombinant CPG2 was exposed to various concentrations of glutamated AMS prodrug. Following incubation at 37° C. (0.5, 1, 2, and 4 hr.), the reaction was combined with Amplex® Red (converts free glutamate to a fluorescent species) and fluorescent emission was analyzed using a fluorescence multiwell plate scanner.
The CPG2-pET151 vector was transformed into BL21 star E. coli cells and induced with IPTG. Bacteria were homogenized in a French Press and purified by affinity chromatography over Ni++ beads using standard protocols. Imidazole was exchanged via PBS dialysis and protein was purified via desalting spin columns. The expressed and purified CPG2 was assayed to confirm that the active enzyme was a potent converter of glutamated prodrugs. […] Pro-AMS was activated by recombinant CPG2 in vitro. Human Jurkat T cells were incubated with or without P-AMS in the presence of increasing concentration of purified CPG2. […] (FIG. 4B) Similar enzyme kinetics will be used to assess the characteristics of the enzyme activity for each of the prodrugs similarly. […]

SMILES | cell viability (SET2 cells) | cell viability (Jurkat T cells) | activation of prodrug ([1]; HEK293T cells expressing CPG intracellularly) | cell death ([1]; stably transfected HEK293T with cell-secreted or transmembrane CPG2, 48 hr) | activation by recombinant CPG2 in vitro (Human Jurkat T cells)
Nc1ncnc2c1ncn2[C@@H]1O[C@H](COS(=O)(=O)NCC2=C(C(=O)O)N3C(=O)[C@@H](NC(=O)Cc4cccs4)[C@H]3SC2)[C@@H](O)[C@H]1O [ceph-AMS] | significant decrease in cell viability |  |  |  | 
NS(=O)(=O)OC[C@H]1O[C@@H](n2cnc3c(NC(=O)N[C@@H](CCC(=O)O)C(=O)O)ncnc32)[C@H](O)[C@@H]1O [P-AMS, ((9-((2R,3R,4S,5R)-3,4-dihydroxy-5-((sulfamoyloxy)methyl)tetrahydrofuran-2-yl)-9H-purin-6-yl)carbamoyl)-L-glutamic acid] |  | significant decrease in cell viability | not activated | significant cell death | activated

Reference: US12496310B2, “Compositions and methods for adoptive cell therapy” (MEMORIAL SLOAN KETTERING CANCER CENTER, priority 2017, dated 2025)
